Reference: patent US20250205275A1, “POLYMERIC IRON BINDING COMPOSITIONS AND METHODS OF USE FOR TREATING DISEASES ASSOCIATED WITH EXCESS DAMAGING REACTIVE IRON” (Fe Pharmaceuticals (Canada) Inc., priority 2022, published 2025)
Marks after values point to notes of the source that are not given here.

Key:
microbial growth = conditions: cited from earlier work
Gram negative bacteria = conditions: cited from earlier work
fungi = conditions: cited from earlier work
Gram positive bacteria = conditions: cited from earlier work
[1] = cited from earlier work
[2] = Iron(III) binding affinity by NaOH titration with UV-vis spectra (HypSpec2014); conditions: 25° C.
Procedure: The titrations were carried out under a wet nitrogen atmosphere to avoid concentration changes due to evaporation. Aliquots of each complex solution were taken periodically during the titration and the UV-vis spectra of the aliquots were collected as a batch once the titration was completed. The pH range studied spanned the equilibrium between bis and tris coordination for the ligands as these are the only two species expected at physiological pH. For Fe3-DIBI the spectra were collected 24 h after collecting the batch of aliquots. The spectra were processed using HypSpec2014 to determine the iron(III) binding affinity of […] and deferiprone (DFP) as reference as summarized in Table 7.

[3] = Resistance of chelator-bound iron(III) to chemical reduction by dithionite; assay type: physicochemical; conditions: 0.1 M MOPS, pH 7.4
Source text: Chemical reduction of iron from Fe(III) to Fe(II) is part of the chemical reductive cycling of iron that drives ROS production in and around cells and also facilities removal of iron from intracellular stores for use elsewhere in the body. Generally iron in extracellular compartments of the body is in the Fe(III) form this helping to limit iron related toxic reactions as free Fe(II) would quickly oxidize to Fe(III) and this could drive, for example, ROS production. Thus, the relative ability of an iron chelator to hold Fe(III) and resist its reduction to Fe(II) would have benefits. Correspondingly, the relative chemical reducibility of Fe(III) to Fe(II) as bound by deferiprone, MAHMP and DIBI was tested. The different iron loaded chelators were first prepared so that iron only sufficient to ensure initial presence of fully coordinated iron(III) was used, i.e. a ratio of three chelator molecules of either deferiprone or MAHMP to each iron(III) atom present. DIBI with its measured MAHMP content was also similarly loaded with iron added just sufficient to satisfy its MAHMP iron binding sites on a similar basis. The iron-chelates were then reacted with dithionite (DT, [S2O4]^2−) a chemical reductant for iron and the relative changes in absorbance intensity at 460 nm was used to monitor for iron reduction with results as shown in FIG. 2.

ferroptosis = conditions: cited from earlier work
[4] = in vivo; cited from earlier work
[5] = tested on: cells challenged with high-glucose; conditions: cited from earlier work
[6] = Approx, based on close analogue 36 and FBS0701; cited from earlier work
[7] = clinical trials; cited from earlier work
ferroportin = biological target: T1, ferroportin (Homo sapiens, UniProt Q9NP59); conditions: clinical testing, advanced to phase II; cited from earlier work
T1 sequence (Q9NP59 1-571): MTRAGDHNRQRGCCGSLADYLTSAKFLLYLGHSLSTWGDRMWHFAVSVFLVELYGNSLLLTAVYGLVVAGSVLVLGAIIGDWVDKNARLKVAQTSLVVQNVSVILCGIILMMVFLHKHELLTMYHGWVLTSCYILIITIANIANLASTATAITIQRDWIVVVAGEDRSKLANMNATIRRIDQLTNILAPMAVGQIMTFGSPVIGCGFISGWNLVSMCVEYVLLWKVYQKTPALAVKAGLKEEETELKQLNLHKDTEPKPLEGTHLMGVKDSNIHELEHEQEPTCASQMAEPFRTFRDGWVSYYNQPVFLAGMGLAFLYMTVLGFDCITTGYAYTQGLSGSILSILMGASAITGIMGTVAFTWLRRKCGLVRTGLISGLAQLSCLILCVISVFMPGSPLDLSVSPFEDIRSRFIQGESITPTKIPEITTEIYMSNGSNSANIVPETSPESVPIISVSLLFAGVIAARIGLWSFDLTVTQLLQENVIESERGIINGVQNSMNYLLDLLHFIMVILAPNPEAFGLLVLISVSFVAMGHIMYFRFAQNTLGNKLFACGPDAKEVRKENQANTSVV

[8] = doxorubicin-induced mouse model; cited from earlier work

Structure (SMILES) | Antimicrobial activity (microbial growth) | MIC Gram negative bacteria (Gram negative bacteria) | MIC fungi (fungi) | MIC Gram positive bacteria (Gram positive bacteria) | Hydrophobicity/ hydrophilicity log P [1] | cell viability [5] | other results
O=C(O)c1ccc(-n2nc(-c3ccccc3O)nc2-c2ccccc2O)cc1 [Deferasirox] | Low | 133^m μM | 67^p μM | 21^l μM | 4.3 ^b |  | 
Cc1c(O)c(=O)ccn1C [Deferiprone] | Very Low | 287^k μM | 1151^n μM | 575^e μM | −0.8 ^b |  | Log β1 iron binding formation constant [2]: 15.01(1); Log β2 iron binding formation constant [2]: 27.5(7); Log β3 iron binding formation constant [2]: 36.7(1); reduction of bound iron(III) by dithionite (intensity of 460 nm band) [3]: readily reduced
CC(=O)N(O)CCCCCNC(=O)CCC(=O)N(O)CCCCCNC(=O)CCC(=O)N(O)CCCCCN [Deferoxamine] | Poor, | >913^k μM | >228^n μM | >913^k μM | −3 ^b | rescued cell viability | effect on ferroptosis (ferroptosis): suppression; infections in test animals [4]: fatal infections
C=C(C)C(=O)NCCn1ccc(=O)c(O)c1C [MAHMP] |  |  |  |  |  |  | Log β1 iron binding formation constant [2]: 15.01(1); Log β2 iron binding formation constant [2]: 27.9(1); Log β3 iron binding formation constant [2]: 38.22(6); reduction of bound iron(III) by dithionite (intensity of 460 nm band) [3]: The same reaction was observed
COCCOCCOc1ccc(C2=N[C@@](C)(C(=O)O)CS2)c(O)c1 [SP-420] |  |  |  |  | −0.89 |  | Fe binding constant log K [6]: 33.1-33.4; renal toxicity [7]: undesirable renal toxicity
O=C(NCc1ncccc1F)c1coc(CCNCCc2nc3ccccc3[nH]2)n1 [VIT-2763] |  |  |  |  |  |  | lowering serum iron levels (ferroportin): good potential for lowering serum iron levels; toxicity (ferroportin): low toxicity
O=C([O-])CN(CC(=O)[O-])CC(=O)[O-].[Fe+3] [ferric-nitriloacetate (NTA), ferric-nitriloacetate] |  |  |  |  |  |  | effect on ferroptosis (ferroptosis): promote ferroptosis and renal carcinoma
CCOC(=O)c1ccc(NC2CCCCC2)c(N)c1 [ferrostatin-1] |  |  |  |  |  | rescued cell viability | cardiac function [8]: improved cardiac function; mortality [8]: reduced mortality
O=c1c(O)c(-c2ccc(O)c(O)c2)oc2cc(O)cc(O)c12 [quercetin] |  |  |  |  |  | rescued cell viability | 
